Assay results published in PMC9025560, “A Comparison of Evans Blue and 4-(p-Iodophenyl)butyryl Albumin Binding Moieties on an Integrin αvβ6 Binding Peptide” (Pharmaceutics, 2022).
Like-named read-outs stand apart in the source and are kept apart here.

Assays:
human serum protein = experiment: Human serum protein binding by ultrafiltration; format: in vitro ADME
Experimental: Serum protein binding of [^64Cu]1 and [^64Cu]2 was assessed following the previously reported method. Peptides [^64Cu]1 and [^64Cu]2 were evaluated by ultrafiltration using Centrifree Ultrafiltration devices (EMD) according to the manufacturer’s recommendations. Experiments were carried out in triplicate. The Centrifree Ultrafiltration devices were pretreated with PBS containing Tween 20 (5% v/v), followed by triplicate rinses with PBS. An aliquot of each peptide [^64Cu]1 or [^64Cu]2 in PBS (≤25 μL, 20–60 KBq) was thoroughly mixed with 0.5 mL of serum at 37 °C in a microfuge tube. The mixture was incubated at 37 °C for 5 min, and an aliquot (50 μL) was transferred to a tube for γ-counting. The remaining sample was transferred to a Centrifree Ultrafiltration device and centrifuged for 40 min at 1500 (RCF) at ambient temperature (20–24 °C). An aliquot (50 μL) of the filtrate was transferred to a tube for γ-counting. For each radiolabeled peptide, a blank was run using 0.5 mL PBS/Tween 20 (5% v/v) instead of serum (n = 3) to determine non-specific binding. Following γ-counting, the protein-bound radioactivity was calculated by subtracting the counts measured in the filtrate aliquot (i.e., not protein-bound) from the counts in the corresponding serum aliquot. The data are expressed as mean ± standard deviation of fraction of radioactivity bound to protein after subtraction of non-specific binding determined in the blank.

[1] = Biodistribution in mice bearing BxPC-3 xenograft tumors; format: in vivo; conditions: female, athymic nu/nu-nude, mouse, in vivo, total radioactivity; for tissue uptake at 4 h: 4 h p.i.; for tissue uptake at 24 h: 24 h p.i.; for tissue uptake at 48 h: 48 h p.i.
Experimental: All animal procedures conformed to the Animal Welfare Act and were approved by the University of California, Davis Institutional Animal Care and Use Committee. Female athymic nu/nu-nude mice (6–8 weeks old) were purchased from Charles River Laboratories (Wilmington, MA, USA) and provided food and water on an ad libitum basis. BxPC-3 xenografts were implanted according to previous methods. Briefly, BxPC-3 cells were evaluated by flow cytometry to confirm integrin αvβ6 expression levels, injected subcutaneously into the left flank [5 million in 100 μL of a 1:1 mixture of serum-free RPMI and GFR Matrigel (Corning, New York, NY, USA)], and allowed to grow for approximately 3 weeks until tumors reached a diameter of 0.5–1 cm.
For biodistribution studies the [^64Cu]1–4 (3.7–5.55 MBq) in PBS (100 μL, pH 7.2) was injected intravenously (i.v.) via catheter into the tail vein. Following a conscious uptake period, the mice were anesthetized (5% isoflurane), euthanized, and dissected ([^64Cu]1 and [^64Cu]2, n = 3/radiolabeled peptide/time point; 4, 24, and 48 h p.i.; the 72 h time point was obtained from the imaging animals after the 72 h PET/CT scans; compounds [^64Cu]3 and [^64Cu]4, n = 2/radiolabeled compound at 4 h p.i.). Tissues were rapidly collected, weighed, and radioactivity measured with a γ-counter. Decay-corrected radioactivity concentrations are expressed as the percentage of injected dose per gram of tissue (% ID/g). Data are reported as mean ± standard deviation (SD) (Figure S20, S21 and S25).

[2] = iv, i.v., read-out: Blood uptake
[3] = iv, i.v., read-out: Bone uptake
[4] = iv, i.v., read-out: Brain uptake
[5] = iv, i.v., read-out: BxPC-3 Tumor uptake
[6] = iv, i.v., read-out: Fecal Matter radioactivity
[7] = iv, i.v., read-out: Gall Bladder uptake
[8] = iv, i.v., read-out: Heart uptake
[9] = iv, i.v., read-out: Kidneys uptake
[10] = iv, i.v., read-out: Lg. Intestines uptake
[11] = iv, i.v., read-out: Liver uptake
[12] = iv, i.v., read-out: Lung uptake
[13] = iv, i.v., read-out: Muscle uptake
[14] = iv, i.v., read-out: Pancreas uptake
[15] = iv, i.v., read-out: Skin uptake
[16] = iv, i.v., read-out: Sm. Intestines uptake
[17] = iv, i.v., read-out: Spleen uptake
[18] = iv, i.v., read-out: Stomach uptake
[19] = iv, i.v., read-out: Urine radioactivity

For Cc1cc(-c2ccc(NC(=O)CCC(=O)NCCCC[C@H](NC(=O)CN3CCN(CC(=O)O)CCN(CC(=O)O)CCN(CC(=O)O)CC3)C(=O)NCCOCCOCCOCCOCCOCCOCCOCCOCCOCCOCCOCCOCCOCCOCCOCCOCCOCCOCCOCCOCCOCCOCCOCCOCCOCCOCCOCCOCCC(=O)N[C@@H](CC(N)=O)C(=O)N[C@@H](C)C(=O)N[C@H](C(=O)N3CCC[C@H]3C(=O)N[C@@H](CC(N)=O)C(=O)N[C@@H](CC(C)C)C(=O)N[C@@H](CCCNC(=N)N)C(=O)NCC(=O)N[C@@H](CC(=O)O)C(=O)N[C@@H](CC(C)C)C(=O)N[C@@H](CCC(N)=O)C(=O)N[C@H](C(=O)N[C@@H](CC(C)C)C(=O)N[C@@H](C)C(=O)N[C@@H](CCC(N)=O)C(=O)N[C@@H](CCCNC(=N)N)C(=O)N[C@H](C(=O)N[C@@H](C)C(=O)N[C@@H](CCCNC(=N)N)C(=O)N[C@H](C(=O)NCCOCCOCCOCCOCCOCCOCCOCCOCCOCCOCCOCCOCCOCCOCCOCCOCCOCCOCCOCCOCCOCCOCCOCCOCCOCCOCCOCCOCCC(N)=O)[C@@H](C)O)C(C)C)C(C)C)C(C)C)c(C)c2)ccc1N=Nc1ccc2c(S(=O)(=O)O)cc(S(=O)(=O)O)c(N)c2c1O [[^64Cu]1, [^64Cu]Cu DOTA-EB-αvβ6-BP, metal not drawn], the “Binding to human serum protein” value (human serum protein; 37 °C, ultrafiltration) was 53.4 ± 0.9%, the Serum albumin binding (human serum protein; abstract, serum species not stated) was 53–63% and the tissue uptake at 4 h [1, 2] was 1.3 ± 0.31 %ID/g. It also gave a tissue uptake at 4 h [1, 3] of 0.44 ± 0.04 %ID/g, a tissue uptake at 4 h [1, 4] of 0.09 ± 0.02 %ID/g and a tissue uptake at 4 h [1, 5] of 5.29 ± 0.59 %ID/g. It also gave a tissue uptake at 4 h [1, 6] of 3.03 ± 0.67 %ID/g, a tissue uptake at 4 h [1, 7] of 2.12 ± 0.51 %ID/g and a tissue uptake at 4 h [1, 8] of 0.99 ± 0.08 %ID/g. It also gave a tissue uptake at 4 h [1, 9] of 75.5 ± 7.26 %ID/g, a tissue uptake at 4 h [1, 10] of 4.13 ± 0.1 %ID/g and a tissue uptake at 4 h [1, 11] of 1.64 ± 0.2 %ID/g. For the same compound, the tissue uptake at 4 h [1, 12] was 2.71 ± 0.57 %ID/g, the tissue uptake at 4 h [1, 13] was 0.67 ± 0.1 %ID/g and the tissue uptake at 4 h [1, 14] was 0.46 ± 0.06 %ID/g. For the same compound, the tissue uptake at 4 h [1, 15] was 1.56 ± 0.34 %ID/g, the tissue uptake at 4 h [1, 16] was 4.72 ± 0.55 %ID/g and the tissue uptake at 4 h [1, 17] was 0.32 ± 0.28 %ID/g. It also gave a tissue uptake at 4 h [1, 18] of 6.41 ± 0.64 %ID/g, a tissue uptake at 4 h [1, 19] of 19.6 ± 10.5 %ID/g and a tissue uptake at 24 h [1, 2] of 0.33 ± 0.01 %ID/g. The tissue uptake at 24 h [1, 3] was 0.34 ± 0.13 %ID/g, the tissue uptake at 24 h [1, 4] was 0.09 ± 0.01 %ID/g and the tissue uptake at 24 h [1, 5] was 5.03 ± 0.97 %ID/g. It also gave a tissue uptake at 24 h [1, 6] of 2.85 ± 0.55 %ID/g, a tissue uptake at 24 h [1, 7] of 1.85 ± 0.27 %ID/g and a tissue uptake at 24 h [1, 8] of 0.92 ± 0.05 %ID/g. The tissue uptake at 24 h [1, 9] was 40.5 ± 7.7 %ID/g, the tissue uptake at 24 h [1, 10] was 3.46 ± 0.45 %ID/g and the tissue uptake at 24 h [1, 11] was 2.09 ± 0.1 %ID/g. It also gave a tissue uptake at 24 h [1, 12] of 2.79 ± 1.62 %ID/g, a tissue uptake at 24 h [1, 13] of 0.5 ± 0.2 %ID/g and a tissue uptake at 24 h [1, 14] of 0.48 ± 0.03 %ID/g. The tissue uptake at 24 h [1, 15] was 1.08 ± 0.3 %ID/g, the tissue uptake at 24 h [1, 16] was 2.78 ± 0.31 %ID/g and the tissue uptake at 24 h [1, 17] was 0.56 ± 0.16 %ID/g. For the same compound, the tissue uptake at 24 h [1, 18] was 4.18 ± 0.54 %ID/g, the tissue uptake at 24 h [1, 19] was 5.01 ± 0.29 %ID/g and the tissue uptake at 48 h [1, 2] was 0.33 ± 0.1 %ID/g. It also gave a tissue uptake at 48 h [1, 3] of 0.3 ± 0.08 %ID/g, a tissue uptake at 48 h [1, 4] of 0.12 ± 0.02 %ID/g and a tissue uptake at 48 h [1, 5] of 4 ± 1.51 %ID/g. The tissue uptake at 48 h [1, 6] was 2.34 ± 0.89 %ID/g, the tissue uptake at 48 h [1, 7] was 1.75 ± 0.61 %ID/g and the tissue uptake at 48 h [1, 8] was 1.02 ± 0.17 %ID/g. For the same compound, the tissue uptake at 48 h [1, 9] was 26.2 ± 5.89 %ID/g, the tissue uptake at 48 h [1, 10] was 2.65 ± 0.05 %ID/g and the tissue uptake at 48 h [1, 11] was 2.59 ± 0.51 %ID/g. For the same compound, the tissue uptake at 48 h [1, 12] was 2.33 ± 0.32 %ID/g, the tissue uptake at 48 h [1, 13] was 0.49 ± 0.07 %ID/g and the tissue uptake at 48 h [1, 14] was 0.41 ± 0.2 %ID/g. It also gave a tissue uptake at 48 h [1, 15] of 1.12 ± 0.18 %ID/g, a tissue uptake at 48 h [1, 16] of 1.85 ± 0.07 %ID/g and a tissue uptake at 48 h [1, 17] of 0.5 ± 0.18 %ID/g. It also gave a tissue uptake at 48 h [1, 18] of 3.02 ± 0.52 %ID/g, a tissue uptake at 48 h [1, 19] of 3.92 ± 1.05 %ID/g and a tissue uptake at 72 h ([1]; iv, 72 h p.i., i.v., read-out: Blood uptake) of 0.35 ± 0.08 %ID/g. It also gave a tissue uptake at 72 h ([1]; iv, 72 h p.i., i.v., read-out: Bone uptake) of 0.25 ± 0.13 %ID/g, a tissue uptake at 72 h ([1]; iv, 72 h p.i., i.v., read-out: Brain uptake) of 0.16 ± 0.04 %ID/g and a tissue uptake at 72 h ([1]; iv, 72 h p.i., i.v., read-out: BxPC-3 Tumor uptake) of 3.32 ± 0.46 %ID/g. It also gave a tissue uptake at 72 h ([1]; iv, 72 h p.i., i.v., read-out: Fecal Matter radioactivity) of 1.81 ± 0.74 %ID/g, a tissue uptake at 72 h ([1]; iv, 72 h p.i., i.v., read-out: Gall Bladder uptake) of 1.75 ± 0.65 %ID/g and a tissue uptake at 72 h ([1]; iv, 72 h p.i., i.v., read-out: Heart uptake) of 1.15 ± 0.2 %ID/g. It also gave a tissue uptake at 72 h ([1]; iv, 72 h p.i., i.v., read-out: Kidneys uptake) of 20 ± 6.91 %ID/g, a tissue uptake at 72 h ([1]; iv, 72 h p.i., i.v., read-out: Lg. Intestines uptake) of 1.95 ± 0.29 %ID/g and a tissue uptake at 72 h ([1]; iv, 72 h p.i., i.v., read-out: Liver uptake) of 2.36 ± 0.51 %ID/g. It also gave a tissue uptake at 72 h ([1]; iv, 72 h p.i., i.v., read-out: Lung uptake) of 1.88 ± 0.11 %ID/g, a tissue uptake at 72 h ([1]; iv, 72 h p.i., i.v., read-out: Muscle uptake) of 0.44 ± 0.12 %ID/g and a tissue uptake at 72 h ([1]; iv, 72 h p.i., i.v., read-out: Pancreas uptake) of 0.59 ± 0.12 %ID/g. It also gave a tissue uptake at 72 h ([1]; iv, 72 h p.i., i.v., read-out: Skin uptake) of 0.88 ± 0.12 %ID/g, a tissue uptake at 72 h ([1]; iv, 72 h p.i., i.v., read-out: Sm. Intestines uptake) of 1.38 ± 0.18 %ID/g and a tissue uptake at 72 h ([1]; iv, 72 h p.i., i.v., read-out: Spleen uptake) of 0.58 ± 0.16 %ID/g. The tissue uptake at 72 h ([1]; iv, 72 h p.i., i.v., read-out: Stomach uptake) was 2.02 ± 0.16 %ID/g, the tissue uptake at 72 h ([1]; iv, 72 h p.i., i.v., read-out: Urine radioactivity) was 3.17 ± 1.58 %ID/g and the tissue uptake at 72 h ([1]; 72 h, read-out: GI uptake) was < 3.2 %ID/g. The tissue uptake ([1]; throughout 4–72 h, read-out: Liver uptake throughout) was < 3 %ID/g.
